Measured values: patent US20180371044A1, “PEPTIDOMIMETIC MACROCYCLES” (Aileron Therapeutics, Inc., priority 2015, published 2018)
Where a SMILES comes first, the peptide text is derived from it. Bridges are numbered along the chain shown (N, C = ends). [ ]: non-standard residue; d: D form. NMeY = CN[C@@H](Cc1ccc(O)cc1)C(=O)O; R8 = C=CCCCCCC[C@@](C)(N)C(=O)O; S5 = C=CCCC[C@](C)(N)C(=O)O; Nle = CCCC[C@H](N)C(=O)O; Aib = CC(C)(N)C(=O)O

Tests used:
[1] = Plasma PK/PD study in rats; assay type: in vivo, rat; conditions: male Sprague-Dawley rats
Procedure: Five peptidomimetic macrocycles of the invention, as well as sermorelin, were studied to determine pharmacokinetic and pharmacodynamic parameters in rats. Male Sprague-Dawley rats (300 g, non-fasted, cannulated) were used. The study had three arms: IV administration, SC administration, and SC administration (vehicle control). For experiments using sermorelin, a dose level of 3 mg/kg IV/SC bolus was used (dose volume of […] dose and dose concentration of 1 mg/mL). The vehicle used was: 10 wt % N, N-Dimethylacetamide, 10 wt % DMSO, 2 wt % Solutol HS 15 in water for injection containing 45 mg/mL (4.5 wt %) Mannitol and 25 mM (0.38 wt %) Histidine (pH 7.5; 320 mOsm/kg). The peptide was first dissolved at high concentration in DMA and DMSO before a second dilution in Solutol vehicle.
For experiments using peptidomimetic macrocycles, 0.1 mL of DMA and 0.1 mL of DMSO were used to combine with each mg of macrocycle (˜4.3-4.5 mg of macrocycle used in each experiment). Sonication was used to ensure complete solubilization. 0.8 mL of Solutol vehicle was used for each mg of macrocycle in DMA/DMSO. The solutions were mixed gently with pipet or light vortexing. Fresh vials were used for each day of dosing, and macrocycles were stored solid at −20° C. prior to formulation.
For each study arm, 2 rats were bled (350 μL) at specific time points (5 min, 15 min, 30 min, 1 h, 2 h, 4 h, 8 h, 24 h, and 48 h) and a 150 μL bleed was performed just before dosing. Plasma was prepared into K2EDTA tubes by centrifuging for 20 minutes at 4° C. at 2000G maximum 30 minutes after collection. From each 350 μL bleed, 120 μL were transferred to one tube for PK studies and 50 μL to another tube for PD studies and frozen immediately. From the 150 μL bleed, 70 μL were transferred to one tube for PD studies and frozen immediately.

[2] = molecular target: T1, human GHRH receptor (hGHRHR) (Homo sapiens, UniProt Q02643); assay: GHRHR agonism measured by cAMP (HTRF) in human 293 cells expressing hGHRHR; assay type: cell-based; conditions: 30 min at RT;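 further: receptor expressed transiently or stably, cells stimulated in serum-free medium, EC50 from a non-linear dose-response fit, maximal response defined by reference GHRH stimulation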
T1 construct: expressed in transfected cells; host or cells: Human 293 cells
T1 sequence (Q02643 23-423): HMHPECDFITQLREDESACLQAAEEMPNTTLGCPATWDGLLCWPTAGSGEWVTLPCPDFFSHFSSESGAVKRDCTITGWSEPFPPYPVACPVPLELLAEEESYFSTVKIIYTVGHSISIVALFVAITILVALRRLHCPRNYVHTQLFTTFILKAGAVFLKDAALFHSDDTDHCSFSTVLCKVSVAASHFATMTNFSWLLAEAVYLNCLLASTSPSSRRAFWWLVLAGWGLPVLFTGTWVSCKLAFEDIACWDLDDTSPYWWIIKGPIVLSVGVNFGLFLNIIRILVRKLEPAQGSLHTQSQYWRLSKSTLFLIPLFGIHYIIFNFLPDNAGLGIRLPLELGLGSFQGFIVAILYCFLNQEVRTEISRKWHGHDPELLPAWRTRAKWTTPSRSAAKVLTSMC
Procedure: GHRH (1-29) and cross-linked peptidomimetic macrocycles were tested for agonism at the human GHRH receptor (hGHRHR) at various concentrations. Human 293 cells transiently or stably expressing hGHRHR were detached from cell culture flasks with versene (Life Technologies™), suspended in serum-free medium (50 k cells/assay point), and stimulated for 30 min at RT with GHRH (1-29) (Bachem™) or cross-linked peptidomimetic macrocycles. cAMP was quantified using an HTRF®-based assay (CisBio) and used according to the manufacturer's instructions. An EC50 for each agonist was calculated from a non-linear fit of response vs dose (GraphPad™ Prism). The maximum response was determined by stimulating with 10 μM GHRH (1-29). (+=>50 nm; ++=>25-50 nm; +++=>10-25 nm; ++++=>1-10 nm; +++++=≤1 nm).

Q: Which “AUC Ext (%)” value [1] does the source give for `CCCC[C@@H]1NC(=O)[C@H]([C@@H](C)CC)NC(=O)[C@H](CC(=O)O)NC(=O)[C@@](C)(NC(=O)[C@H](CC(C)C)NC(=O)[C@H](C)NC(=O)[C@H](CCCCN)NC(=O)[C@H](CCCNC(=N)N)NC(=O)[C@H](C)NC(=O)[C@H](CO)NC(=O)[C@H](CC(C)C)NC(=O)[C@H](CCC(N)=O)NC(=O)[C@H](C)NC(=O)[C@H](CC(C)C)NC(=O)[C@@H](NC(=O)[C@H](CCCCN)NC(=O)[C@H](CCCNC(=N)N)NC(=O)[C@H](Cc2ccc(O)cc2)NC(=O)[C@H](CO)NC(=O)[C@H](C)NC(=O)[C@@H](NC(=O)[C@H](Cc2ccccc2)NC(=O)[C@@H](NC(=O)[C@H](C)NC(=O)[C@H](CC(=O)O)NC(=O)[C@H](C)NC(=O)[C@H](Cc2ccc(O)cc2)NC)[C@@H](C)CC)[C@@H](C)O)C(C)C)CCCC=CCCC[C@@](C)(C(=O)N[C@@H](CCCNC(=N)N)C(N)=O)NC1=O` [SP-21] (H-[NMeY]ADAIFTASYRKVLAQLSARKAL[S5]DI[Nle][S5]R-NH2; staple 24-28; N-terminus and C-terminus assumed) here?
A: Its value is 9.4%.

Q: What about the MRT ([1]; rat, 3 mg/kg) of the same compound?
A: Its MRT is 5.3 h.

Q: And the clearance ([1]; rat, 3 mg/kg, read-out: Clp (converted))?
A: Its clearance is 0.099 L/h/kg.

Q: What about the Vd ([1]; rat, 3 mg/kg, read-out: Vdss) of the same compound?
A: Its Vd is 0.524 L/kg.

Q: What about the half-life ([1]; rat, 3 mg/kg, read-out: t ½ (converted)) of the same compound?
A: Its half-life is 10.1 h.

Q: And the AUC(0-inf) ([1]; rat, 3 mg/kg, route not given)?
A: Its AUC(0-inf) is 30.5 µg·h/mL.

Q: Which EC50 [2] does the source give for `CCCC[C@H](NC(=O)[C@@H](NC(=O)[C@H](CC(=O)O)NC(=O)[C@H](CCC(N)=O)NC(=O)[C@H](CC(C)C)NC(=O)[C@]1(C)CCCC=CCCCCCC[C@@](C)(NC(=O)[C@H](CC(C)C)NC(=O)[C@@H](NC(=O)[C@H](CCCCN)NC(=O)[C@H](CCCNC(=N)N)NC(=O)[C@H](Cc2ccc(O)cc2)NC(=O)[C@H](CO)NC(=O)[C@H](C)NC(=O)[C@@H](NC(=O)[C@H](Cc2ccccc2)NC(=O)[C@@H](NC(=O)[C@H](C)NC(=O)[C@H](CC(=O)O)NC(=O)[C@H](C)NC(=O)[C@H](Cc2ccc(O)cc2)NC)[C@@H](C)CC)[C@@H](C)O)C(C)C)C(=O)N[C@@H](CCC(N)=O)C(=O)N[C@@H](CC(C)C)C(=O)N[C@@H](CO)C(=O)N[C@@H](C)C(=O)N[C@@H](CCCNC(=N)N)C(=O)N[C@@H](CCCCN)C(=O)N1)[C@@H](C)CC)C(=O)N[C@@H](CO)C(=O)N[C@@H](CCCNC(=N)N)C(N)=O` [SP-27] (H-[NMeY]ADAIFTASYRKVL[R8]QLSARK[S5]LQDI[Nle]SR-NH2; staple 15-22) here?
A: Its EC50 is 0.001 to 0.01 µM.

Q: With `CCCC[C@H](NC(=O)[C@@H](NC(=O)[C@H](CC(=O)O)NC(=O)C(C)(C)NC(=O)[C@H](CC(C)C)NC(=O)[C@H](C)NC(=O)[C@H](CCCCN)NC(=O)[C@H](CCCNC(=N)N)NC(=O)[C@H](C)NC(=O)C(C)(C)NC(=O)[C@H](CC(C)C)NC(=O)[C@H](CCC(N)=O)NC(=O)[C@H](C)NC(=O)[C@H](CC(C)C)NC(=O)[C@@H](NC(=O)[C@H](CCCCN)NC(=O)[C@H](CCCNC(=N)N)NC(=O)[C@H](Cc1ccc(O)cc1)NC(=O)[C@H](CO)NC(=O)C(C)(C)NC(=O)[C@@H](NC(=O)[C@H](Cc1ccccc1)NC(=O)[C@@H](NC(=O)[C@H](C)NC(=O)[C@H](CC(=O)O)NC(=O)[C@H](C)NC(=O)[C@H](Cc1ccc(O)cc1)NC)[C@@H](C)CC)[C@@H](C)O)C(C)C)[C@@H](C)CC)C(=O)N[C@@H](CO)C(=O)N[C@@H](CCCNC(=N)N)C(N)=O` [SP-55] (H-[NMeY]ADAIFT[Aib]SYRKVLAQL[Aib]ARKAL[Aib]DI[Nle]SR-NH2) as the compound, how does the EC50 [2] read?
A: Its EC50 is 0.001 to 0.01 µM.

Q: For `CCCC[C@H](NC(=O)[C@@H](NC(=O)[C@H](CC(=O)O)NC(=O)[C@H](CCC(N)=O)NC(=O)[C@H](CC(C)C)NC(=O)[C@H](C)NC(=O)[C@H](CCCCN)NC(=O)[C@H](CCCNC(=N)N)NC(=O)[C@H](C)NC(=O)[C@H](CO)NC(=O)[C@H](CC(C)C)NC(=O)[C@H](CCC(N)=O)NC(=O)[C@H](C)NC(=O)[C@H](CC(C)C)NC(=O)[C@]1(C)CCCC=CCCC[C@](C)(NC(=O)[C@H](C)NC(=O)[C@@H](NC(=O)[C@H](Cc2ccccc2)NC(=O)[C@@H](NC(=O)[C@H](C)NC(=O)[C@H](CC(=O)O)NC(=O)[C@H](C)NC(=O)[C@H](Cc2ccc(O)cc2)NC)[C@@H](C)CC)[C@@H](C)O)C(=O)N[C@@H](Cc2ccc(O)cc2)C(=O)N[C@@H](CCCNC(=N)N)C(=O)N[C@@H](CCCCN)C(=O)N1)[C@@H](C)CC)C(=O)N[C@@H](CO)C(=O)N[C@@H](CCCNC(=N)N)C(N)=O` [SP-10] (H-[NMeY]ADAIFTA[S5]YRK[S5]LAQLSARKALQDI[Nle]SR-NH2; staple 9-13), which EC50 [2] is on record?
A: The EC50 was 0.001 to 0.01 µM.

Q: For `CCCC[C@H](NC(=O)[C@@H](NC(=O)[C@H](CC(=O)O)NC(=O)[C@H](CCC(N)=O)NC(=O)[C@H](CC(C)C)NC(=O)[C@H](C)NC(=O)[C@H](CCCCN)NC(=O)[C@H](CCCNC(=N)N)NC(=O)[C@H](C)NC(=O)[C@H](CO)NC(=O)[C@H](CC(C)C)NC(=O)[C@]1(C)CCCC=CCCC[C@](C)(NC(=O)[C@H](CCCNC(=N)N)NC(=O)[C@H](Cc2ccc(O)cc2)NC(=O)[C@H](CO)NC(=O)[C@H](C)NC(=O)[C@@H](NC(=O)[C@H](Cc2ccccc2)NC(=O)[C@@H](NC(=O)[C@H](C)NC(=O)[C@H](CC(=O)O)NC(=O)[C@H](C)NC(=O)[C@H](Cc2ccc(O)cc2)NC)[C@@H](C)CC)[C@@H](C)O)C(=O)N[C@@H](C(C)C)C(=O)N[C@@H](CC(C)C)C(=O)N[C@@H](C)C(=O)N1)[C@@H](C)CC)C(=O)N[C@@H](CO)C(=O)N[C@@H](CCCNC(=N)N)C(N)=O` [SP-11] (H-[NMeY]ADAIFTASYR[S5]VLA[S5]LSARKALQDI[Nle]SR-NH2; staple 12-16), which EC50 [2] is on record?
A: The EC50 was 0.01 to 0.025 µM.

Q: Which EC50 [2] does the source give for `CCCC[C@H](NC(=O)[C@@H](NC(=O)[C@H](CC(=O)O)NC(=O)[C@H](CCC(N)=O)NC(=O)[C@H](CC(C)C)NC(=O)[C@]1(C)CCCC=CCCC[C@](C)(NC(=O)[C@H](CC(C)C)NC(=O)[C@H](CCC(N)=O)NC(=O)[C@H](C)NC(=O)[C@H](CC(C)C)NC(=O)[C@@H](NC(=O)[C@H](CCCCN)NC(=O)[C@H](CCCNC(=N)N)NC(=O)[C@H](Cc2ccc(O)cc2)NC(=O)[C@H](CO)NC(=O)[C@H](C)NC(=O)[C@@H](NC(=O)[C@H](Cc2ccccc2)NC(=O)[C@@H](NC(=O)[C@H](C)NC(=O)[C@H](CC(=O)O)NC(=O)[C@H](C)NC(=O)[C@H](Cc2ccc(O)cc2)NC)[C@@H](C)CC)[C@@H](C)O)C(C)C)C(=O)N[C@@H](C)C(=O)N[C@@H](CCCNC(=N)N)C(=O)N[C@@H](CCCCN)C(=O)N1)[C@@H](C)CC)C(=O)N[C@@H](CO)C(=O)N[C@@H](CCCNC(=N)N)C(N)=O` [SP-16] (H-[NMeY]ADAIFTASYRKVLAQL[S5]ARK[S5]LQDI[Nle]SR-NH2; staple 18-22) here?
A: The EC50 was 0.001 to 0.01 µM.

Q: For `CCCC[C@H](NC(=O)[C@@H](NC(=O)[C@H](CC(=O)O)NC(=O)C(C)(C)NC(=O)[C@H](CC(C)C)NC(=O)[C@H](C)NC(=O)[C@H](CCCCN)NC(=O)[C@H](CCCNC(=N)N)NC(=O)[C@]1(C)CCCC=CCCCCCC[C@@](C)(NC(=O)[C@H](CCCNC(=N)N)NC(=O)[C@H](Cc2ccc(O)cc2)NC(=O)[C@H](CO)NC(=O)C(C)(C)NC(=O)[C@@H](NC(=O)[C@H](Cc2ccccc2)NC(=O)[C@@H](NC(=O)[C@H](C)NC(=O)[C@H](CC(=O)O)NC(=O)[C@H](C)NC(=O)[C@H](Cc2ccc(O)cc2)NC)[C@@H](C)CC)[C@@H](C)O)C(=O)N[C@@H](C(C)C)C(=O)N[C@@H](CC(C)C)C(=O)N[C@@H](C)C(=O)N[C@@H](CCC(N)=O)C(=O)N[C@@H](CC(C)C)C(=O)N[C@@H](CO)C(=O)N1)[C@@H](C)CC)C(=O)N[C@@H](CO)C(=O)N[C@@H](CCCNC(=N)N)C(N)=O` [SP-67] (H-[NMeY]ADAIFT[Aib]SYR[R8]VLAQLS[S5]RKAL[Aib]DI[Nle]SR-NH2; staple 12-19), which EC50 [2] is on record?
A: Its EC50 is 0.01 to 0.025 µM.
